Patent publication US20240285552A1 (priority 2020, published 2024)
Several values for one entry are separate records, joined by “and”; a condition that tells them apart may be missing. Equal values may be shown once. Entries after “also recorded” stand apart in the source; their conditions may differ. Where a name gives a salt, the structure may show the parent alone. Read-outs that look alike come from different tables or passages of the source.

What was measured:
[1] = system: SARS-CoV-2 spike pseudotyped lentivirus; test: microbe, parasite or virus in culture; format: cell-based; conditions: for inhibition at 10 µM: Severe acute respiratory syndrome coronavirus 2, HEK293, 10 μM
[2] = system: SARS CoV-2 nanoluciferase reporter virus; test: microbe, parasite or virus in culture; format: cell-based; conditions: for IC50: read-out: IC50, viral replication, Nanoluciferase Reporter Virus Assay
in vitro = conditions: human, Cytotoxicity CC50, A549 cells, 72 hours
[3] = target: T1, rhACE2 and SARS-CoV-2 Spike (RBD) protein interaction (Homo sapiens, UniProt Q9BYF1); test: Spike (RBD)-ACE2 binding assay (ELISA); parameters: species or system human; SARS-CoV-2; conditions: for effect on Spike (RBD)-rhACE2 interaction: 100 μM to 100 nM, hydrochloride; for IC50: bell-shaped model, AMB, BHH
T1 construct: purchased RayBiotech CoV-SACE2-1

SARS-CoV-2 USA_WA1/2020 = test: microbe, parasite or virus in culture; format: cell-based; conditions: for inhibition at 30 µM: read-out: inhibition of SARS-CoV-2 induced CPE at maximum concentration
[4] = Severe acute respiratory syndrome coronavirus 2, 50 μM, Table 3, read-out: Percent Inhibition of fusion of SARS-CoV-2 spike pseudotyped lentivirus with HEK293-ACE2 cells
[5] = Severe acute respiratory syndrome coronavirus 2, 100 μM, Table 3, read-out: Percent Inhibition of fusion of SARS-CoV-2 spike pseudotyped lentivirus with HEK293-ACE2 cells
[6] = Table 2, read-out: Percent (%) Inhibition of Pseudo virus Entry in HEK293 Kidney Cells, SARS-COV-2
[7] = Severe acute respiratory syndrome coronavirus 2, HEK293, 100 μM, Table 2, read-out: Percent (%) Inhibition of Pseudo virus Entry in HEK293 Kidney Cells, SARS-COV-2
[8] = highest tested 100 μM, read-out: Estimated Relative IC50 against rhACE2 and RBD Interaction Assay, IC50_2
[9] = read-out: Estimated Relative IC50 against rhACE2 and RBD Interaction Assay, IC50_1
[10] = Severe acute respiratory syndrome coronavirus 2, Vero C1008, Example C (Table 3), read-out: IC 50 against SARS-COV-2 Induced Cytopathic Effect in Vero E6 Cells
[11] = Severe acute respiratory syndrome coronavirus 2, Vero C1008, Vero E6, Example B, highest concentration tested 30 μM, read-out: IC50 against SARS-CoV-2 infection induced CPE
[12] = Severe acute respiratory syndrome coronavirus 2, Vero C1008, Example B

T1 sequence (Q9BYF1 18-740): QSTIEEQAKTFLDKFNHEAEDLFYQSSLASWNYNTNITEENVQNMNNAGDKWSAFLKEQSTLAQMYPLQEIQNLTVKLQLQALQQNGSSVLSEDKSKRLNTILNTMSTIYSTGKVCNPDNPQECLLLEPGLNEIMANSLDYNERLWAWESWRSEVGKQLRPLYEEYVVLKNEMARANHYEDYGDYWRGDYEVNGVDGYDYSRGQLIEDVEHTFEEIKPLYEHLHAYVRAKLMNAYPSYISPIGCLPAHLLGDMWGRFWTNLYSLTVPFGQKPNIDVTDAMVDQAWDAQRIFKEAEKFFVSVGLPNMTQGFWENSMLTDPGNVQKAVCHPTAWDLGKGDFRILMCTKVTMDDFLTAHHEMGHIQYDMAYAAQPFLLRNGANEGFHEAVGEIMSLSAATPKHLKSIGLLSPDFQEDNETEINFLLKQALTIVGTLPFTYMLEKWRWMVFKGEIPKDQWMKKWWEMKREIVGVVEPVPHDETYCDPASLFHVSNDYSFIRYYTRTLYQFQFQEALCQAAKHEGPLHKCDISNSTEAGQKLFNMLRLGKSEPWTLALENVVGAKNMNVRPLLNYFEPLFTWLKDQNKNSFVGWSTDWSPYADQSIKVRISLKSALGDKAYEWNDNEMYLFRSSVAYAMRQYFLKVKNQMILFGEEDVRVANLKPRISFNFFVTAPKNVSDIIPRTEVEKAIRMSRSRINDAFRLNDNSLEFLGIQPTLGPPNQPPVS

Row | SMILES | Percent Inhibition of fusion of SARS-CoV-2 spike pseudotyped lentivirus with HEK293-ACE2 cells ([1]; 50 μM, Table 3, hydrochloride) | Percent Inhibition of fusion of SARS-CoV-2 spike pseudotyped lentivirus with HEK293-ACE2 cells ([1]; 100 μM, Table 3, hydrochloride) | inhibition at 50 µM [1, 4] | inhibition at 100 µM [1, 5] | inhibition at 10 µM [1, 6] | inhibition at 100 µM [1, 7] | effect on Spike (RBD)-rhACE2 interaction [3] | IC50 [3, 8] | IC50 [3, 9] | Concentration at Maximum % Inhibition (SARS-CoV-2 USA_WA1/2020; Example C (Table 3)) | Maximum Inhibition (SARS-CoV-2 USA_WA1/2020; Example C (Table 3)) | IC50 (SARS-CoV-2 USA_WA1/2020; [10]) | IC50 (SARS-CoV-2 USA_WA1/2020; [11]) | inhibition at 30 µM (SARS-CoV-2 USA_WA1/2020; [12]) | also measured
1 | Nc1c(Br)cc(Br)cc1CN[C@H]1CC[C@H](O)CC1 [AMB, 4-[(2-amino-3,5-dibromophenyl)methylamino]cyclohexan-1-ol; hydrochloride] | 59% | 47% | 72% | 41% | 2% | 89% | did not produce a stimulation or enhancement of binding; also recorded: more potent at disrupting the interaction between ACE2 and RBD than BHH | 232 µM | 0.82 µM | 150 µM | 49.87% | ≥ 150 µM | > 30 µM | 14.2% | Conc. at Max. % Viability (A549 cells): 2.34 µM; Conc. at Min. % Viability (A549 cells): 300 µM; Max. Viability (A549 cells): 100%; Min. Viability (A549 cells): 0.14%; CC50 (A549 cells; read-out: Cytotoxicity CC50, 72 hours, hydrochloride): 137 µM; Percent Inhibition of fusion of SARS-CoV-2 spike pseudotyped lentivirus with HEK293-ACE2 cells ([1]; 10 μM, Table 3, hydrochloride): 86% and 55%; Percent Inhibition of fusion of SARS-CoV-2 spike pseudotyped lentivirus with HEK293-ACE2 cells ([1]; 25 μM, Table 3, hydrochloride): 64%; Percent (%) Inhibition of Pseudo virus Entry in HEK293 Kidney Cells, SARS-COV-2 ([1]; 50 μM, Table 2, hydrochloride): 46%; inhibition at 25 µM ([1]; Severe acute respiratory syndrome coronavirus 2, 25 μM, Table 3, read-out: Percent Inhibition of fusion of SARS-CoV-2 spike pseudotyped lentivirus with HEK293-ACE2 cells): 78%; inhibition at 25 µM ([1]; Severe acute respiratory syndrome coronavirus 2, HEK293, 25 μM, Table 2, read-out: Percent (%) Inhibition of Pseudo virus Entry in HEK293 Kidney Cells, SARS-COV-2): 12%; inhibition at 50 µM ([1]; Severe acute respiratory syndrome coronavirus 2, HEK293, 50 μM, Table 2, read-out: Percent (%) Inhibition of Pseudo virus Entry in HEK293 Kidney Cells, SARS-COV-2): ~50%; Concentration at Maximum % Inhibition ([2]; A549-ACE2, NLRV): 300 µM; Maximum Inhibition ([2]; A549-ACE2, NLRV): 99.73%; IC50 ([2]; Severe acute respiratory syndrome coronavirus 2, A549, 72 h): 47 µM; IC50 ([2]; hydrochloride): 47.3 µM; CC50 at 72 h (in vitro): 137 µM; IC50 (SARS-CoV-2 USA_WA1/2020; Example C (Table 3), hydrochloride, read-out: IC 50 against SARS-COV-2 Induced Cytopathic Effect in Vero E6 Cells): > 150 µM
2 | CN(Cc1cc(Br)cc(Br)c1N)C1CCCCC1 [BHH, Bromhexine hydrochloride] | 61% | 76% | 57% | 73% | 50% | ≤ 100% | enhanced the interaction at higher concentrations; also recorded: increased the binding of ACE2 and RBD at high concentrations of 100 and 50 μM but blocked the interaction at low concentrations | 42.9 µM | 1.19 µM | 37.5 µM | 72.39% | ~31.6 µM | ~21.7 µM | ~91.1% | EC50 (SARS-CoV-2 USA_WA1/2020; Severe acute respiratory syndrome coronavirus 2, Vero C1008, read-out: EC50 values against SARS-CoV-2 (summary statement)): ~30 µM
